The text below walks through data of patent publication USRE37919E1, “Recombinant DNA method for production of parathyroid hormone” (The General Hospital Corporation, priority 1989, dated 2002).

The target of one assay is T1, PTH receptors (Homo sapiens, UniProt Q03431).
T1 sequence (Q03431 27-593): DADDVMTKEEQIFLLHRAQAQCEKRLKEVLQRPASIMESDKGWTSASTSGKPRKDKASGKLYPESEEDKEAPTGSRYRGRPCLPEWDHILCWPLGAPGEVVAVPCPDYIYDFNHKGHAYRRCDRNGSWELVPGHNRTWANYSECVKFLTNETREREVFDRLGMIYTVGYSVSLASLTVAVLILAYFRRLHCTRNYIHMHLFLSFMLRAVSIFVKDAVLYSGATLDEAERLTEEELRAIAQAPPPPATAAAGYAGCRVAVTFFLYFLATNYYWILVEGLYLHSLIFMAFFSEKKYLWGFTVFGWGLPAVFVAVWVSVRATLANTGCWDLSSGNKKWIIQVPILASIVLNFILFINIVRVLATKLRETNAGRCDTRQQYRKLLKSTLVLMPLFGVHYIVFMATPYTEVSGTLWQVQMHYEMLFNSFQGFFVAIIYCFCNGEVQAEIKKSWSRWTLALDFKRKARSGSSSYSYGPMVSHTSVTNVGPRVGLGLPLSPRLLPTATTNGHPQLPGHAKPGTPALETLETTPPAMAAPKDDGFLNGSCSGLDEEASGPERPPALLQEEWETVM
The following applies: literature; cited from earlier work.

Assay [1] deals with opossum kidney cells. As to the kind of experiment: Binding to opossum kidney cells. The conditions noted are these: FIG. 3. The method, then: (§1) The recombinant peptide produced as described in Example 1 above was tested for it binding to two cells types.
Assay [2] has as its system UMR rat osteosarcoma cell line. As to the kind of experiment: Binding to UMR rat osteosarcoma cell line. The conditions noted are these: FIG. 4. The procedure:
as §1

In assay [3] the test system is opossum kidney cells. The class given is cell-based. The text has this:
(§2) Therefore, the recombinant peptide had PTH biological activity which is largely indistinguishable from that of a known active fragment.

A further assay has as its system UMR cells. As to the kind of experiment: Cyclic AMP response of UMR tumor cells. Format: cell-based, rat. The following applies: FIG. 6, read-out: EC50 of cyclic AMP stimulation.
From the text: as §2

Read-outs that look alike come from different tables or passages of the source.

Regarding “PTH (3-34): synthetic analog of bovine PTH, recognized PTH antagonist (SEIQFMHNLGKHLSSMERVEWLRKKLQDVHNF; Parathyroid hormone; UniProt P01268 34-65, looked up, fragment)”, the “PTH antagonist activity in vitro” value with PTH receptors is listed as “potent PTH antagonist”.

On to “human parathyroid hormone 1-84 [recombinant hPTH(1-84)]”, for which the half-maximal binding result in the assay on opossum kidney cells [1] is given as “about 3 nM”. The “half-maximum value of binding” value in assay [2] is on record as “about 10 nM”. For the same molecule, the EC50 with opossum kidney cells [3] (opossum kidney cells, FIG. 5, read-out: EC50 of cyclic AMP stimulation) is approximately 10 nM; in the assay on UMR cells, approximately 3 nM.

For the molecule `CC[C@H](C)[C@H](NC(=O)[C@H](CCC(=O)O)NC(=O)[C@H](CO)NC(=O)[C@@H](NC(=O)[C@@H](N)CO)C(C)C)C(=O)N[C@@H](CCC(N)=O)C(=O)N[C@@H](CC(C)C)C(=O)N[C@@H](CCSC)C(=O)N[C@@H](Cc1c[nH]cn1)C(=O)N[C@@H](CC(N)=O)C(=O)N[C@@H](CC(C)C)C(=O)NCC(=O)N[C@@H](CCCCN)C(=O)N[C@@H](Cc1c[nH]cn1)C(=O)N[C@@H](CC(C)C)C(=O)N[C@@H](CC(N)=O)C(=O)N[C@@H](CO)C(=O)N[C@@H](CCSC)C(=O)N[C@@H](CCC(=O)O)C(=O)N[C@@H](CCCNC(=N)N)C(=O)N[C@H](C(=O)N[C@@H](CCC(=O)O)C(=O)N[C@@H](Cc1c[nH]c2ccccc12)C(=O)N[C@@H](CC(C)C)C(=O)N[C@@H](CCCNC(=N)N)C(=O)N[C@@H](CCCCN)C(=O)N[C@@H](CCCCN)C(=O)N[C@@H](CC(C)C)C(=O)N[C@@H](CCC(N)=O)C(=O)N[C@@H](CC(=O)O)C(=O)N[C@H](C(=O)N[C@@H](Cc1c[nH]cn1)C(=O)N[C@@H](CC(N)=O)C(=O)N[C@@H](Cc1ccccc1)C(=O)O)C(C)C)C(C)C` [synthetic PTH(1-34)], the half-maximal binding entry with opossum kidney cells [1] was “about 1 nM”. Besides, the “half-maximum value of binding” value in assay [2] is listed as “about 2 nM”. Besides, the EC50 in the assay with opossum kidney cells [3] is approximately 4 nM; in the assay with UMR cells, approximately 0.1 nM.

A word on the EC50: it is the concentration giving half of the maximal effect.
